Earlier results on one substance are cited in US20080057142A1, “COMPOSITIONS AND METHODS FOR WEIGHT-LOSS AND WEIGHT-LOSS MAINTENANCE IN DAYTIME AND NIGHTTIME FORMULATION” (priority 2005, published 2008).

For this data set the following is noted: EGCG, but not related catechins.

On to epigallocatechin-3-gallate [EGCG], for which the body weight result was “reduced body weight” and the food intake entry is given as “significantly reduced food intake”.
